From patent US20230212138A1, “PHD INHIBITOR COMPOUNDS, COMPOSITIONS, AND THEIR USE” (Akebia Therapeutics, Inc., priority 2020, published 2023)

Columns and labels:
Type in all cases: biochemical
[1] = target: T1, full-length human PHD1 (Homo sapiens, UniProt Q96KS0); test: TR-FRET assay, PHD1 enzymatic IC50; conditions: 15 nM PHD1, 1 μM 2-OG
T1 construct: expressed in a baculovirus expression system as the full-length protein; FLAG (N); purchased Active Motif 81064; host or cells: baculovirus expression system
T1 sequence (Q96KS0 whole entry): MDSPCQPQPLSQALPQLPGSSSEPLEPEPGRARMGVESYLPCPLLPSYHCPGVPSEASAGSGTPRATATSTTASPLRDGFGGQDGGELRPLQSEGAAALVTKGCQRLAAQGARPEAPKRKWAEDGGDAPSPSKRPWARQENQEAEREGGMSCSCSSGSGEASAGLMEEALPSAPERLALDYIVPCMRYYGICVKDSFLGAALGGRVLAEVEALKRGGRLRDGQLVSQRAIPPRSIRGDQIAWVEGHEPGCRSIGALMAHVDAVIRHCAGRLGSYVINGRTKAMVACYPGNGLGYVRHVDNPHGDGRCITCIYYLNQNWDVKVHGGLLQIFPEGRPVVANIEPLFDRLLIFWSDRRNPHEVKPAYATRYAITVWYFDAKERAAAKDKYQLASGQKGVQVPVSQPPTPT
Excerpt: (§1) In the presence of 2-oxoglutarate and O2, PHD enzyme hydroxylates proline 564 of biotin-tagged HIF-1α peptide resulting in generation of biotin-tagged HIF-1α-hydroxyproline, succinate and CO2. The resulting proximity of the donor fluorophore complex, monoclonal antibody anti-6His-Terbium (Tb)-cryptate Gold, bound to the His-tagged VHL protein, EloB, EloC complex (His-VBC) and the acceptor fluorophore, SA-D2 complex, bound to HIF-1α-hydroxyproline results in a fluorescence resonance energy transfer signal that can be detected and quantified
(§2) Time-resolved fluorescence resonance energy transfer (TR-FRET) assay was utilized to determine the enzymatic half maximal inhibitory concentration (IC50) value of PHD inhibitors against the full-length human prolyl-4-hydroxylase domain (PHD) enzymes, PHD1, PHD2, and PHD3. The TR-FRET assay was developed based on the specific binding of hydroxylated HIF-1α peptide with the complex formed by VHL, EloB and EloC (VBC), to generate a fluorescent signal. Terbium (Tb)-Donor (monoclonal antibody anti-6His-Tb-cryptate Gold) and D2-acceptor (streptavidin [SA]-D2) of TR-FRET are linked to the VBC complex and to HIF-1α peptide, respectively. The VBC complex binds specifically to the HIF-1α peptide when it is hydroxylated, allowing energy transfer from TR-FRET donor to acceptor (FIG. 1).
Recombinant human PHD1 protein (catalog #81064, Lot #24717001) was purchased from Active Motif (Carlsbad, Calif., USA). PHD1 was expressed in a baculovirus expression system as the full-length protein (NCBI accession number NP_542770.2) with an N-terminal FLAG tag (molecular weight 44.9 kDa). Purity (>90%) was assessed by SDS-PAGE.
(§3) PHD inhibitor compound was preincubated with PHD enzyme in a 10 μL reaction volume in white 384-well Optiplate microplates (catalog #6007290, Perkin Elmer, Waltham, Mass., USA). For this, 5 μL PHD inhibitor compound was serially diluted with dilution buffer (50 mM HEPES [4-(2-hydroxyethyl)-1-piperazineethanesulfonic acid] pH 7.5, 50 mM sodium chloride [NaCl], 0.01% Tween-20, 0.01% purified bovine serum albumin [BSA]) and mixed with 5 μL PHD enzyme mix prepared as a 4× concentrate in the dilution buffer containing PHD enzyme (60 nM PHD1, 20 nM PHD2, 140 nM PHD3), 40 μM ferrous ammonium sulfate (FAS), 4 mM sodium (Na) ascorbate. The plates were incubated for 30 minutes at room temperature without rotation.
(§4) Five microliters of the VBC/anti-6His-Tb-cryptate Gold mix prepared as a 4×concentrate in dilution buffer containing 20 nM His-VBC, 1.32 nM monoclonal antibody anti-6His-Tb-cryptate Gold was then added. This step was followed immediately by the addition of 5 μL of the HIF-1α C35 substrate mix prepared as a 4×concentrate in the dilution buffer containing 120 nM biotin-labeled HIF-1α C35, 132 nM SA-D2, 4 μM 2-oxoglutarate (2-OG) to reach a final reaction volume of 20 μL.
(§5) The final assay reaction contained 50 mM HEPES, pH 7.5, 50 mM NaCl, 1 μM 2-OG, 10 μM FAS, 1 mM Na ascorbate, 0.01% Tween-20, 0.01% purified BSA, 30 nM biotin-labeled HIF-1α C35, 5 nM His-VBC, 0.33 nM monoclonal antibody anti-6His-Tb-cryptate Gold, 33 nM SA-D2 and PHD enzyme (15 nM PHD1, 5 nM PHD2, or 35 nM PHD3) with the diluted compound.
(§6) For the measurement of the IC50 of PHD inhibitor compound, reactions were incubated for 10 minutes at room temperature and then read on a Perkin Elmer EnVision (Waltham, Mass., USA) at an excitation wavelength of 340 nm and at emission wavelengths of 615 nm and 665 nm. The data represent the quotient of the signal intensity at 665 nm and 615 nm, automatically calculated by Envision Manager software (Perkin Elmer, Waltham, Mass., USA). The IC50 values (mean, standard deviation, standard error of the mean, geometric mean and 95% confidence interval) were determined using a four-parameter curve-fit using GraphPad Prism 7.0 (GraphPad, La Jolla, Calif., USA) and represent the compound concentration plotted against the calculated ratio of 665 nm and 615 nm. […]

[2] = target: T2, full-length human PHD2 (Homo sapiens, UniProt Q9GZT9); test: TR-FRET assay, PHD2 enzymatic IC50; conditions: 5 nM PHD2, 1 μM 2-OG
T2 construct: The PHD2 construct contained amino acids 1 to 426 of PHD2; His tag (N, cleaved yes); TEV protease cleavage site (N, cleaved yes); host or cells: Sf9 insect cells (baculovirus)
T2 sequence (Q9GZT9 whole entry, the tested form may be a part): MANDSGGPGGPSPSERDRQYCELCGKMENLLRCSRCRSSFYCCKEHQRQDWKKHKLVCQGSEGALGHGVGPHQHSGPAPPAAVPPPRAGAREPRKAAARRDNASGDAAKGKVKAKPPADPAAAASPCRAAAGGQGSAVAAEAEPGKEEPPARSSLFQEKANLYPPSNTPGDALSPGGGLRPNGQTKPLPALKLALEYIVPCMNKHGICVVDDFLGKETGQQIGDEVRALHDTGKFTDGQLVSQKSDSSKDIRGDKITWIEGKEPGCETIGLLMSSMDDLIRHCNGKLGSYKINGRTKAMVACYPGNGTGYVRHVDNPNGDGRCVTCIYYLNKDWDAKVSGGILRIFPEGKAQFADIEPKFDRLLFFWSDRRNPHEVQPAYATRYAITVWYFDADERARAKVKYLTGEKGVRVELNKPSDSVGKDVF
Excerpt: as §1, §2
The full-length human PHD2 enzyme was produced with a baculovirus infected insect cell (BIIC) expression system by Beryllium (Bedford, Mass., USA). The PHD2 construct contained amino acids 1 to 426 of PHD2 (UniProt Knowledgebase[UniProtKB]/Swiss-Prot accession number Q9GZT9.1), and a His tag and a Tobacco Etch Virus (TEV) protease cleavage site at the N-terminus. The construct was expressed in Sf9 insect cells, purified by Ni-NTA column and digested with TEV protease to remove the His tag.
as §3, §4, §5
For the measurement of the IC50 of PHD inhibitor compound, reactions were incubated for 10 minutes at room temperature and then read on a Perkin Elmer EnVision (Waltham, Mass., USA) at an excitation wavelength of 340 nm and at emission wavelengths of 615 nm and 665 nm. The data represent the quotient of the signal intensity at 665 nm and 615 nm, automatically calculated by Envision Manager software (Perkin Elmer, Waltham, Mass., USA). […]

[3] = target: T3, full-length human PHD3 (Homo sapiens, UniProt Q9H6Z9); test: TR-FRET assay, PHD3 enzymatic IC50; conditions: 35 nM PHD3, 1 μM 2-OG
T3 construct: It was expressed in E. coli as the full-length protein; 6-His (N); purchased Active Motif 81033; host or cells: E. coli
T3 sequence (Q9H6Z9 whole entry): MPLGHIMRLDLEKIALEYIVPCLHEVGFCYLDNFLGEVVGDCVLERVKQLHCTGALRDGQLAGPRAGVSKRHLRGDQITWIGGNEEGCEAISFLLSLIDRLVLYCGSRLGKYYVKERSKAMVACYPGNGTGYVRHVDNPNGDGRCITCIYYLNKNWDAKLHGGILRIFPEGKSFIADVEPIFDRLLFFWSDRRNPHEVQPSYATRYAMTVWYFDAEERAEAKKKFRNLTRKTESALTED
Excerpt: as §1, §2
Recombinant human PHD3 protein (molecular weight 31.1 kDa) was purchased from Active Motif (Carlsbad, Calif., USA). It was expressed in E. coli as the full-length protein (NCBI accession number NP_071356.1) with an N-terminal 6-His tag (catalog #81033, Lot #24417001).
as §3, §4, §5, §6

For CS(=O)(=O)Nc1ccc(-n2ncc(-c3ccc(C#N)cc3)c2O)nc1 [Compound 24, N-(6-(4-(4-cyanophenyl)-5-hydroxy-1H-pyrazol-1-yl)pyridin-3-yl)methanesulfonamide], the IC50 [1] was < 0.1 µM, the IC50 [2] was < 0.1 µM and the IC50 [3] was < 0.1 µM.

With CC(=O)c1ccc(-n2ncc(-c3ccc(C#N)cc3)c2O)nc1 [Compound 1, 4-(1-(5-acetylpyridin-2-yl)-5-hydroxy-1H-pyrazol-4-yl)benzonitrile] the IC50 [1] was < 0.1 µM, the IC50 [2] was < 0.1 µM and the IC50 [3] was < 0.1 µM.

CS(=O)(=O)c1ccc(-n2ncc(-c3ccc(Br)cc3)c2O)nc1 [Compound 9, 4-(4-bromophenyl)-1-(5-(methylsulfonyl)pyridin-2-yl)-1H-pyrazol-5-ol] was tested, and the IC50 [1] was < 0.1 µM, the IC50 [2] was < 0.1 µM and the IC50 [3] was 0.1 to 1 µM.

For N#Cc1ccc(-c2cnn(-c3ccc(-n4cccn4)cn3)c2O)cc1 [Compound 10, 4-(1-(5-(1H-pyrazol-1-yl)pyridin-2-yl)-5-hydroxy-1H-pyrazol-4-yl)benzonitrile], the IC50 [1] was < 0.1 µM, the IC50 [2] was < 0.1 µM and the IC50 [3] was 0.1 to 1 µM.

For CS(=O)(=O)c1ccc(-n2ncc(-c3ccc(Cl)cc3)c2O)nc1 [Compound 19, 4-(4-chlorophenyl)-1-(5-(methylsulfonyl)pyridin-2-yl)-1H-pyrazol-5-ol], the IC50 [1] was < 0.1 µM, the IC50 [2] was < 0.1 µM and the IC50 [3] was 0.1 to 1 µM.

For CS(=O)(=O)c1ccc(-n2ncc(-c3ccc(CC#N)cc3)c2O)nc1 [Compound 7, 2-(4-(5-hydroxy-1-(5-(methylsulfonyl)pyridin-2-yl)-1H-pyrazol-4-yl)phenyl)acetonitrile], the IC50 [1] was < 0.1 µM, the IC50 [2] was < 0.1 µM and the IC50 [3] was < 0.1 µM.

Cc1cc(C#N)ccc1-c1cnn(-c2ccc(S(C)(=O)=O)cn2)c1O [Compound 6, 4-(5-hydroxy-1-(5-(methylsulfonyl)pyridin-2-yl)-1H-pyrazol-4-yl)-3-methylbenzonitrile] was tested, and the IC50 [1] was < 0.1 µM, the IC50 [2] was < 0.1 µM and the IC50 [3] was < 0.1 µM.

For N#Cc1ccc(-c2cnn(-c3ccc(F)cn3)c2O)cc1 [Compound 17, 4-(1-(5-fluoropyridin-2-yl)-5-hydroxy-1H-pyrazol-4-yl)benzonitrile], the IC50 [1] was < 0.1 µM, the IC50 [2] was < 0.1 µM and the IC50 [3] was 0.1 to 1 µM.

With CCC(=O)c1ccc(-n2ncc(-c3ccc(C#N)cc3)c2O)nc1 [Compound 2, 4-(5-hydroxy-1-(5-propionylpyridin-2-yl)-1H-pyrazol-4-yl)benzonitrile] the IC50 [1] was < 0.1 µM, the IC50 [2] was < 0.1 µM and the IC50 [3] was < 0.1 µM.

In the case of CCC(=O)Nc1ccc(-n2ncc(-c3ccc(C#N)cc3)c2O)nc1 [Compound 23, N-(6-(4-(4-cyanophenyl)-5-hydroxy-1H-pyrazol-1-yl)pyridin-3-yl)propionamide], the IC50 [1] is reported as < 0.1 µM, the IC50 [2] is reported as < 0.1 µM and the IC50 [3] is reported as < 0.1 µM.

CCS(=O)(=O)Nc1ccc(-n2ncc(-c3ccc(C#N)cc3)c2O)nc1 [Compound 25, N-(6-(4-(4-cyanophenyl)-5-hydroxy-1H-pyrazol-1-yl)pyridin-3-yl)ethanesulfonamide] was tested, and the IC50 [1] was < 0.1 µM, the IC50 [2] was < 0.1 µM and the IC50 [3] was < 0.1 µM.
